Test results taken from ChEMBL document CHEMBL2073853, “Cholesterol interaction with the daunorubicin binding site of P-glycoprotein” (Biochem Biophys Res Commun, 2000).
pIC50: −log10 of the molar value.

Target: ATP-dependent translocase ABCB1 (Homo sapiens, UniProt P08183)
Test: TP_TRANSPORTER: increase in Daunorubicn intracellular accumulation (Daunorubicin: ? uM) in NIH-G185 cells
Type: functional, cell-based

Chain of ATP-dependent translocase ABCB1 (P08183 whole entry): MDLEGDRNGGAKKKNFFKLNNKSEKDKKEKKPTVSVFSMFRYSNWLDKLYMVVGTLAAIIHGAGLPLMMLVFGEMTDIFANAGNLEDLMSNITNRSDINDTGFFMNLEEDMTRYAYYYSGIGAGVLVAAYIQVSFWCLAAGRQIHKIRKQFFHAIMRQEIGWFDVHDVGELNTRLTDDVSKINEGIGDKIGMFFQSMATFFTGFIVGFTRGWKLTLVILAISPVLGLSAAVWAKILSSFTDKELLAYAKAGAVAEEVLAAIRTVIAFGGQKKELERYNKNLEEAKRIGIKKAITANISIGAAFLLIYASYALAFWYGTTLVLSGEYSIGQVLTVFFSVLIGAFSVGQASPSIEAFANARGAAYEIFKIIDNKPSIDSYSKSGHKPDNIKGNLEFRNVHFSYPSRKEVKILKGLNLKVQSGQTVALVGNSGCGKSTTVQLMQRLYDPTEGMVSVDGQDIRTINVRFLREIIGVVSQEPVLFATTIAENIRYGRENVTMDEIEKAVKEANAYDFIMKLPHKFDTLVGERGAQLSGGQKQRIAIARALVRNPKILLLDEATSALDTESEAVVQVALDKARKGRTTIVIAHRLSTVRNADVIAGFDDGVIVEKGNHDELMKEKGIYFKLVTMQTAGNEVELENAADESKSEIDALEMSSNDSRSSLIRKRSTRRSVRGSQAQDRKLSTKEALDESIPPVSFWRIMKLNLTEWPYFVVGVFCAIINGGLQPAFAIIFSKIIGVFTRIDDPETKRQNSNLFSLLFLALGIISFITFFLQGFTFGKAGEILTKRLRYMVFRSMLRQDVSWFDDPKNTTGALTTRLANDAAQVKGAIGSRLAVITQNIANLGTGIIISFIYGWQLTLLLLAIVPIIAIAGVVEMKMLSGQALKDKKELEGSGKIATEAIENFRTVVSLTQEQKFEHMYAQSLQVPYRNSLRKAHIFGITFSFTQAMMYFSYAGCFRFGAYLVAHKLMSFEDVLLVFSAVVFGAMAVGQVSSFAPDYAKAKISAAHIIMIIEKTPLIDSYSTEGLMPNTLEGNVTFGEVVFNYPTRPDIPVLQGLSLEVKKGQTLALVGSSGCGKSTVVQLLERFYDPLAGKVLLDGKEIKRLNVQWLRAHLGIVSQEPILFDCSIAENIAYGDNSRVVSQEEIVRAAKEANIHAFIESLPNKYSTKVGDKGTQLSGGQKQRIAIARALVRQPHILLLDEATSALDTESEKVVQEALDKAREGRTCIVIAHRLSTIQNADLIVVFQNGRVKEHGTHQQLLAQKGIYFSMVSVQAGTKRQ

pIC50: 5.09
Structure (SMILES): CC(C)CCC[C@@H](C)[C@H]1CC[C@H]2[C@@H]3CC=C4C[C@@H](O)CC[C@]4(C)[C@H]3CC[C@]12C [CHOLESTEROL]
